These compounds were tested against T1, ASGP receptor (biotinylated ASGPR) (Homo sapiens, UniProt P07306). Details: SPR, Biacore 8K, 25° C.; Table 1A; read-out: ASGPR KD.
T1 construct: biotin (biotinylated)
T1 sequence (P07306 1-291): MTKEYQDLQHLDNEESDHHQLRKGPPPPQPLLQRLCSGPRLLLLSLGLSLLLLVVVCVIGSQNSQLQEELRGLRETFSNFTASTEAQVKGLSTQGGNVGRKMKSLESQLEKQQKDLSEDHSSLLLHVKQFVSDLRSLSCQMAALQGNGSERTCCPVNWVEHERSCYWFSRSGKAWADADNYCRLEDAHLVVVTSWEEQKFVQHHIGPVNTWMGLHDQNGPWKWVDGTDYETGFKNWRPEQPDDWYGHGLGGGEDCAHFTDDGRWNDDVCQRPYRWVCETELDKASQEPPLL
Assay type: binding

| SMILES | Kd [µM] |
| --- | --- |
| CC(=O)N1C[C@H](Nc2cncc(C(F)(F)F)n2)[C@@H](O)[C@@H](O)C1 [A102, 1-((3S,4R,5S)-3,4-dihydroxy-5-((6-(trifluoromethyl)pyrazin-2-yl)amino)piperidin-1-yl)ethan-1-one] | < 10 |
| O[C@@H]1[C@H](O)[C@@H](Nc2cncc(C(F)(F)F)n2)CO[C@@H]1CN1CCCNCC1 [A68, (2R,3R,4R,5S)-2-((1,4-diazepan-1-yl)methyl)-5-((6-(trifluoromethyl)pyrazin-2-yl)amino)tetrahydro-2H-pyran-3,4-diol] | < 10 |
| CC(NC[C@H]1OC[C@H](Nc2cncc(C(F)(F)F)n2)[C@@H](O)[C@H]1O)c1ncccn1 (stereo partly drawn) [A55, (2R,3R,4R,5S)-2-(((1-(pyrimidin-2-yl)ethyl)amino)methyl)-5-((6-(trifluoromethyl)pyrazin-2-yl)amino)tetrahydro-2H-pyran-3,4-diol] | < 10 |
| CC(=O)N[C@@H]1[C@@H](O)[C@@H](O)[C@@H](CO)O[C@@H]1c1ccccc1 [A95, N-((2R,3R,4R,5R,6R)-4,5-dihydroxy-6-(hydroxymethyl)-2-phenyltetrahydro-2H-pyran-3-yl)acetamide] | < 10 |
| NC[C@H]1OC[C@H](Nc2cccc(C(F)(F)F)n2)[C@@H](O)[C@H]1O [A98, (2R,3R,4R,5S)-2-(aminomethyl)-5-((6-(trifluoromethyl)pyridin-2-yl)amino) tetrahydro-2H-pyran-3,4-diol] | < 10 |
| O=C(O)c1ccc(N2CCC(CN3CCN(C[C@H]4OC[C@H](Nc5cccc(C(F)(F)F)n5)[C@@H](O)[C@H]4O)CC3)CC2)cc1 [A100, 4-(4-((4-(((2R,3R,4R,5S)-3,4-dihydroxy-5-((6-(trifluoromethyl)pyridin-2-yl)amino)tetrahydro-2H-pyran-2-yl)methyl)piperazin-1-yl)methyl)piperidin-1-yl)benzoic acid] | < 10 |
| O=C(NC[C@H]1OC[C@H](Nc2cncc(C(F)(F)F)n2)[C@@H](O)[C@H]1O)c1cnc[nH]1 [A22, N-(((2R,3R,4R,5S)-3,4-dihydroxy-5-((6-(trifluoromethyl)pyrazin-2-yl)amino)tetrahydro-2H-pyran-2-yl)methyl)-1H-imidazole-5-carboxamide] | < 10 |
| O=C(O)CNC(COCCC(=O)NCCOCCOCCOCCO[C@@H]1O[C@H](CO)[C@H](O)[C@H](O)[C@H]1Nc1cncc(C(F)(F)F)n1)COCCC(=O)NCCOCCOCCOCCO[C@@H]1O[C@H](CO)[C@H](O)[C@H](O)[C@H]1Nc1cncc(C(F)(F)F)n1 [A35, (1,35-bis(((2R,3R,4R,5R,6R)-4,5-dihydroxy-6-(hydroxymethyl)-3-((6-(trifluoromethyl)pyrazin-2-yl)amino)tetrahydro-2H-pyran-2-yl)oxy)-13,23-dioxo-3,6,9,16,20,27,30,33-octaoxa-12,24-diazapentatriacontan-18-yl)glycine] | < 10 |
| COC(=O)c1cnc(C(=O)NC[C@H]2OC[C@H](Nc3cncc(C(F)(F)F)n3)[C@@H](O)[C@H]2O)nc1 [A72, methyl 2-((((2R,3R,4R,5S)-3,4-dihydroxy-5-((6-(trifluoromethyl)pyrazin-2-yl)amino)tetrahydro-2H-pyran-2-yl)methyl)carbamoyl)pyrimidine-5-carboxylate] | < 10 |
| O=S(=O)(NC[C@H]1OC[C@H](Nc2cncc(C(F)(F)F)n2)[C@@H](O)[C@H]1O)c1ccccc1 [A112, N-(((2R,3R,4R,5S)-3,4-dihydroxy-5-((6-(trifluoromethyl)pyrazin-2-yl)amino)tetrahydro-2H-pyran-2-yl)methyl)benzenesulfonamide] | < 10 |
| O=C(O)COc1ccc(CC(=O)NC[C@H]2OC[C@H](Nc3cncc(C(F)(F)F)n3)[C@@H](O)[C@H]2O)cc1 [A1, 2-(4-(2-((((2R,3R,4R,5S)-3,4-dihydroxy-5-((6-(trifluoromethyl)pyrazin-2-yl)amino)tetrahydro-2H-pyran-2-yl)methyl)amino)-2-oxoethyl)phenoxy)acetic acid] | < 10 |
| O=C(O)c1ccc(N2CCC(CN3CCN(C[C@H]4OC[C@H](Nc5ccnc(C(F)(F)F)n5)[C@@H](O)[C@H]4O)CC3)CC2)cc1 [A97, 4-(4-((4-(((2R,3R,4R,5S)-3,4-dihydroxy-5-((2-(trifluoromethyl)pyrimidin-4-yl)amino)tetrahydro-2H-pyran-2-yl)methyl)piperazin-1-yl)methyl)piperidin-1-yl)benzoic acid] | < 10 |
| OC[C@H]1O[C@@H](c2ccccc2)[C@H](Nc2nccc(C(F)(F)F)n2)[C@@H](O)[C@H]1O [A94, (2R,3R,4R,5R,6S)-2-(hydroxymethyl)-6-phenyl-5-((4-(trifluoromethyl)pyrimidin-2-yl)amino)tetrahydro-2H-pyran-3,4-diol] | < 10 |

Same assay, conditions: SPR, Biacore 8K, 25° C.; Table 1B, numeric bound; read-out: ASGPR Kd

| SMILES | Kd [µM] |
| --- | --- |
| OC[C@H]1OC[C@H](N(CC2CC2)CC2CC2)[C@@H](O)[C@H]1O [A160, (2R,3R,4R,5S)-5-(bis(cyclopropylmethyl)amino)-2-(hydroxymethyl)tetrahydro-2H-pyran-3,4-diol] | > 30 |

Same assay, conditions: SPR, Biacore 8K, 25° C.; Table 1B; read-out: ASGPR Kd

| SMILES | Kd [µM] |
| --- | --- |
| OC[C@H]1OC[C@H](Oc2nccc(C(F)(F)F)n2)[C@@H](O)[C@H]1O [A140, (2R,3R,4S,5S)-2-(hydroxymethyl)-5-((4-(trifluoromethyl)pyrimidin-2-yl)oxy)tetrahydro-2H-pyran-3,4-diol] | < 10 |
| O[C@@H]1[C@@H](Nc2cncc(C(F)(F)F)n2)CNC[C@@H]1O [A150, (3S,4R,5S)-5-((6-(trifluoromethyl)pyrazin-2-yl)amino)piperidine-3,4-diol] | < 10 |

Same assay, conditions: SPR, Biacore 8K, 25° C.; Table 1C; read-out: ASGPR KD

| SMILES | Kd [µM] |
| --- | --- |
| O=C1c2occc2CN1C[C@H]1OC[C@H](Oc2cccc(C(F)(F)F)n2)[C@@H](O)[C@H]1O [A290] | < 10 |
| OC[C@H]1O[C@H](c2ccc(N3CCNCC3)cc2)[C@H](Oc2cccc(C(F)(F)F)n2)[C@@H](O)[C@H]1O [A250] | < 10 |
| CC(O)[C@H]1O[C@H](C)[C@H](O)[C@H](O)[C@H]1Oc1cccc(C(F)(F)F)n1 (stereo partly drawn) [A339] | < 10 |
| O[C@@H]1[C@H](O)[C@@H](Oc2cccc(C(F)(F)F)n2)CO[C@@H]1COc1ccncc1 [A292] | < 10 |
| C[C@H]1O[C@@H](c2ccccn2)[C@H](Oc2cccc(C(F)(F)F)n2)[C@@H](O)[C@H]1O [A336] | < 10 |
| N#Cc1ccc(OC[C@H]2OC[C@H](Nc3cncc(C(F)(F)F)n3)[C@@H](O)[C@H]2O)nn1 [A188, 6-(((2R,3R,4R,5S)-3,4-dihydroxy-5-((6-(trifluoromethyl)pyrazin-2-yl)amino)tetrahydro-2H-pyran-2-yl)methoxy)pyridazine-3-carbonitrile] | < 10 |
| O[C@@H]1[C@H](O)[C@@H](Oc2cccc(C(F)(F)F)n2)CO[C@@H]1CSc1ccccc1 [A304] | < 10 |
| O[C@@H]1[C@H](O)[C@@H](Nc2cccc(C(F)(F)F)n2)CO[C@@H]1CN1CCCC1 [A240] | < 10 |
| O=S(=O)(C[C@H]1OC[C@H](Oc2cccc(C(F)(F)F)n2)[C@@H](O)[C@H]1O)c1ccccc1 [A310] | < 10 |
| O[C@@H]1[C@H](O)[C@@H](Nc2cccc(C(F)(F)F)n2)CO[C@@H]1COc1ccc(Br)cc1 [A236, (2R,3R,4R,5S)-2-((4-bromophenoxy)methyl)-5-((6-(trifluoromethyl)pyridin-2-yl)amino)tetrahydro-2H-pyran-3,4-diol] | < 10 |
| O[C@@H]1[C@H](O)[C@@H](Oc2cccc(C(F)(F)F)n2)CO[C@@H]1CN1CCN(c2cccnn2)CC1 [A264] | < 10 |
| CC[C@]1(COc2ccc(C(=O)O)nn2)O[C@H](O)[C@H](NC(=O)C(F)(F)F)[C@@H](O)[C@H]1O [A313] | < 10 |
| C[C@H]1O[C@H](CCCO)[C@H](Oc2cccc(C(F)(F)F)n2)[C@@H](O)[C@H]1O [A318] | < 10 |
| CC(C)(C)OC(=O)N1CCC(n2cc([C@H]3OC[C@H](Nc4cncc(C(F)(F)F)n4)[C@@H](O)[C@H]3O)nn2)CC1 [A193, tert-butyl 4-(4-((2R,3R,4R,5S)-3,4-dihydroxy-5-((6-(trifluoromethyl)pyrazin-2-yl)amino)tetrahydro-2H-pyran-2-yl)-1H-1,2,3-triazol-1-yl)piperidine-1-carboxylate] | < 10 |
| O=C(O)c1ccc(OC[C@H]2OC[C@H](Nc3cccc(C(F)(F)F)n3)[C@@H](O)[C@H]2O)nn1 [A317] | < 10 |
| O=C(O)c1cnc(OC[C@H]2OC[C@H](Oc3cccc(C(F)(F)F)n3)[C@@H](O)[C@H]2O)cn1 [A244] | < 10 |
| C[C@H]1O[C@H](c2cn(C3CCN(C(=O)OC(C)(C)C)CC3)nn2)[C@H](Oc2cccc(C(F)(F)F)n2)[C@@H](O)[C@H]1O [A217, tert-butyl 4-(4-((2R,3R,4S,5R,6R)-4,5-dihydroxy-6-methyl-3-((6-(trifluoromethyl)pyridin-2-yl)oxy)tetrahydro-2H-pyran-2-yl)-1H-1,2,3-triazol-1-yl)piperidine-1-carboxylate] | < 10 |
| OC[C@H]1O[C@H](Oc2ccc(N3CCNCC3)cc2)[C@H](Oc2cccc(C(F)(F)F)n2)[C@@H](O)[C@H]1O [A237] | < 10 |

Same assay, conditions: SPR, Biacore 8K, 25° C.; Table 1D; read-out: ASGPR KD

| SMILES | Kd [µM] |
| --- | --- |
| O[C@@H]1[C@H](O)[C@@H](Oc2cncc(C(F)(F)F)n2)CO[C@@H]1COc1ncccn1 [A417] | < 10 |
| O=C(Oc1ccc(-c2ccccc2)cc1)N1C[C@H](Nc2cncc(C(F)(F)F)n2)[C@@H](O)[C@@H](O)C1 [A384] | < 10 |
| O[C@@H]1[C@@H](Nc2cncc(C(F)(F)F)n2)CN(c2ccccc2)C[C@@H]1O [A393] | < 10 |
| C#CCOc1nc(N[C@H]2CO[C@H](CO)[C@H](O)[C@@H]2O)cc(C(F)(F)F)n1 [A402] | 10 to 100 |

Same assay, conditions: SPR, Biacore 8K, 25° C.; Table 1E; read-out: ASGPR KD

| SMILES | Kd [µM] |
| --- | --- |
| C[C@H]1O[C@H](C(C)(C)O)[C@H](Oc2cccc(C(F)(F)F)n2)[C@@H](O)[C@H]1O [A433] | < 10 |
